Numbered stars: 1 amine (or outer) side, 2 acyl side, 3 side chain; on linkers, the order of the positions; unused ones are H or OH. Bridge positions count the residues as written; N and C are the ends. Square brackets hold non-standard residues; d marks the D form. Peptide text beside a SMILES is read from it. * marks the point of attachment. ξ: configuration not given here. Phe(3-CF3) = N[C@@H](Cc1cccc(C(F)(F)F)c1)C(=O)O; Phe(4-CONH2) = NC(=O)c1ccc(C[C@H](N)C(=O)O)cc1; Phe(4-COOH) = N[C@@H](Cc1ccc(C(=O)O)cc1)C(=O)O; Bip = N[C@@H](Cc1ccc(-c2ccccc2)cc1)C(=O)O; NH(CH2)14COOH = O=C(O)CCCCCCCCCCCCCCN*; Phe(3-Me) = Cc1cccc(C[C@H](N)C(=O)O)c1; γGlu = O=C(O)[C@H](CCC(=O)[*:2])N[*:1]; NH(CH2)12COOH = O=C(O)CCCCCCCCCCCCN*; Val(3-OH) = CC(C)(O)[C@H](N)C(=O)O; hArg = N=C(N)NCCCC[C@H](N)C(=O)O; Cha = N[C@@H](CC1CCCCC1)C(=O)O; Cit = NC(=O)NCCC[C@H](N)C(=O)O; Thr(3ξ) = CC(O)[C@H](N)C(=O)O; Carboxymethyl = O=C(O)C*; NMeA = CN[C@@H](C)C(=O)O; Orn = NCCC[C@H](N)C(=O)O; Aun = NCCCCCCCCCCC(=O)O; Dab = NCC[C@H](N)C(=O)O; Dap = NC[C@H](N)C(=O)O; AEEA = NCCOCCOCC(=O)O
The compounds below were run against T1, PD-1/PD-L1 interaction (PE-labeled human PD-L1-Ig binding to Jurkat cell line over-expressing human PD-1) (Homo sapiens, UniProt Q15116) (assay: Jurkat-PD-1 Cell Binding High-Content Screening Assay (CBA)). Settings: Jurkat cell line over-expressing human PD-1; PE-labeled PD-L1-Ig 20 nM final; read-out: Jurkat hPD1-PDL1 IC50.
T1 construct: expressed in transfected cells; host or cells: Jurkat
T1 sequence (Q15116 25-288): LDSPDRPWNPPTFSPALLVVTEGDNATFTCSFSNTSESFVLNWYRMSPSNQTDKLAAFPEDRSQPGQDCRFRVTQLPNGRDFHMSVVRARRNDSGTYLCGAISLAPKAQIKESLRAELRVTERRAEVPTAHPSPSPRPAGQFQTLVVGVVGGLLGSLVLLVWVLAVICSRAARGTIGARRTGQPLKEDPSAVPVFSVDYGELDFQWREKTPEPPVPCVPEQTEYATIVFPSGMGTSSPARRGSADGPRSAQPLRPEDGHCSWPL
Type: cell-based
Summary of the method: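 Read-out is high-content imaging of cell-bound phycoerythrin-tagged PD-L1-Ig on fixed, Hoechst-counterstained Jurkat cells that over-express human PD-1. Compound exposure lasts 2 h at 37° C before the labeled ligand (20 nM final) is added for a further hour.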

IC50 [nM]	SMILES
83.8	Cc1cccc(C[C@@H]2NC(=O)[C@H](CC(=O)O)NC(=O)[C@H](Cc3ccc(OCC(=O)O)cc3)NC(=O)[C@H](CCN)NC(=O)CSC[C@@H](C(=O)N[C@@H](CCN)C(=O)NCCOCCOCC(=O)NCCCCCCCCCCCCCCC(=O)O)NC(=O)[C@H](Cc3c[nH]cn3)NC(=O)[C@H](C(C)(C)O)NC(=O)[C@H](CC3CCCCC3)NC(=O)[C@H](CCN)NC(=O)[C@@H](CC(C)C)NC(=O)[C@H](CCCN)NC(=O)[C@H](Cc3ccc(OCC(=O)O)cc3)NC(=O)[C@H](Cc3ccc(-c4ccccc4)cc3)NC(=O)[C@H](Cc3ccc(OCC(=O)O)cc3)NC2=O)c1 [Compound 2872] ({CH2CO}-[Dab]Y(Carboxymethyl)D[Phe(3-Me)]Y(Carboxymethyl)[Bip]Y(Carboxymethyl)[Orn][dL][Dab][Cha][Val(3-OH)]HC[Dab][AEEA]-{NH(CH2)14COOH}; thioether N-14)
7.4	Cc1cccc(C[C@@H]2NC(=O)[C@H](CC(=O)O)NC(=O)[C@H](Cc3ccc(OCC(=O)O)cc3)NC(=O)[C@H](CCCCNC(=N)N)NC(=O)CSC[C@@H](C(=O)N[C@@H](CCN)C(=O)NCCOCCOCC(=O)NCCCCCCCCCCC(=O)O)NC(=O)[C@H](CCCN)NC(=O)[C@H](C(C)C)NC(=O)[C@H](CC3CCCCC3)NC(=O)[C@H](CCN)NC(=O)[C@@H](CC(C)C)NC(=O)[C@H](CCN)NC(=O)[C@H](C(C)C)NC(=O)[C@H](Cc3ccc(-c4ccccc4)cc3)NC(=O)[C@H](C(C)C)NC2=O)c1 [Compound 3252] ({CH2CO}-[hArg]Y(Carboxymethyl)D[Phe(3-Me)]V[Bip]V[Dab][dL][Dab][Cha]V[Orn]C[Dab][AEEA][Aun]-OH; thioether N-14)
39	CC(C)C[C@H]1NC(=O)[C@H](CCCN)NC(=O)[C@H](Cc2ccc(C(=O)O)cc2)NC(=O)[C@H](Cc2ccc(-c3ccccc3)cc2)NC(=O)[C@H](Cc2ccc(C(=O)O)cc2)NC(=O)[C@H](Cc2cccc(C(F)(F)F)c2)NC(=O)[C@H](CC(=O)O)NC(=O)[C@H](Cc2ccc(OCC(=O)O)cc2)NC(=O)[C@H](C)NC(=O)CSC[C@@H](C(=O)N[C@@H](CCN)C(=O)NCCOCCOCC(=O)N[C@@H](CCC(=O)NCCOCCOCC(=O)NCCCCCCCCCCCCC(=O)O)C(=O)O)NC(=O)[C@H](CO)NC(=O)[C@H](C(C)(C)O)NC(=O)[C@H](CC2CCCCC2)NC(=O)[C@H](CCN)NC1=O [Compound 2934] ({CH2CO}-AY(Carboxymethyl)D[Phe(3-CF3)][Phe(4-COOH)][Bip][Phe(4-COOH)][Orn][dL][Dab][Cha][Val(3-OH)]SC[Dab][AEEA][γGlu][AEEA]-{NH(CH2)12COOH}; thioether N-14)
13.7	Cc1cccc(C[C@@H]2NC(=O)[C@H](CC(=O)O)NC(=O)[C@H](Cc3ccc(OCC(=O)O)cc3)NC(=O)[C@H](CN)NC(=O)CSC[C@@H](C(=O)N[C@@H](C)C(=O)N[C@@H](CCCN)C(=O)NCC(=O)NCCCCCCCCCCC(=O)O)NC(=O)[C@H]([C@@H](C)O)NC(=O)[C@H](C(C)C)NC(=O)[C@H](CC3CCCCC3)NC(=O)[C@H](CCN)NC(=O)[C@@H](CC(C)C)NC(=O)[C@H](CCCN)NC(=O)[C@H](CCCNC(=N)N)NC(=O)[C@H](Cc3ccc(-c4ccccc4)cc3)NC(=O)[C@H](C(C)C)NC2=O)c1 [Compound 2007] ({CH2CO}-[Dap]Y(Carboxymethyl)D[Phe(3-Me)]V[Bip]R[Orn][dL][Dab][Cha]VTCA[Orn]G[Aun]-OH; thioether N-14)
368	Cc1cccc(C[C@@H]2NC(=O)[C@H](CC(=O)O)NC(=O)[C@H](Cc3ccc(OCC(=O)O)cc3)NC(=O)[C@H](CN)NC(=O)CSC[C@@H](C(=O)N(C)[C@@H](C)C(=O)N[C@@H](CCC(=O)O)C(=O)NCCCCCCCCCCC(=O)O)NC(=O)[C@H]([C@@H](C)O)NC(=O)[C@H](C(C)C)NC(=O)[C@H](CC3CCCCC3)NC(=O)[C@H](CCN)NC(=O)[C@@H](CC(C)C)NC(=O)[C@H](CCCN)NC(=O)[C@H](CCCNC(N)=O)NC(=O)[C@H](Cc3ccc(-c4ccccc4)cc3)NC(=O)[C@H](C(C)C)NC2=O)c1 [Compound 2783] ({CH2CO}-[Dap]Y(Carboxymethyl)D[Phe(3-Me)]V[Bip][Cit][Orn][dL][Dab][Cha]VTC[NMeA]E[Aun]-OH; thioether N-14)
50.4	Cc1cccc(C[C@@H]2NC(=O)[C@H](CC(=O)O)NC(=O)[C@H](Cc3ccc(OCC(=O)O)cc3)NC(=O)[C@H](CCN)NC(=O)CSC[C@@H](C(=O)NCCOCCOCC(=O)NCCCCCCCCCCC(=O)O)NC(=O)[C@H](C(C)O)NC(=O)[C@H](C(C)(C)O)NC(=O)[C@H](CC3CCCCC3)NC(=O)[C@H](CCN)NC(=O)[C@@H](CC(C)C)NC(=O)[C@H](CCCN)NC(=O)[C@H](Cc3ccc(O)cc3)NC(=O)[C@H](Cc3ccc(-c4ccccc4)cc3)NC(=O)[C@H](Cc3ccc(C(N)=O)cc3)NC2=O)c1 (stereo partly drawn) [Compound 3727] ({CH2CO}-[Dab]Y(Carboxymethyl)D[Phe(3-Me)][Phe(4-CONH2)][Bip]Y[Orn][dL][Dab][Cha][Val(3-OH)][Thr(3ξ)]C[AEEA][Aun]-OH; thioether N-14)
37.6	CC(C)C[C@H]1NC(=O)[C@H](CCCN)NC(=O)[C@H](C(C)C)NC(=O)[C@H](Cc2ccc(-c3ccccc3)cc2)NC(=O)[C@H](C(C)C)NC(=O)[C@H](Cc2c[nH]c3ccccc23)NC(=O)[C@H](CC(=O)O)NC(=O)[C@H](Cc2ccc(OCC(=O)O)cc2)NC(=O)[C@H](CN)NC(=O)CSCC(C(=O)N[C@H](C)C(=O)NCCCCCCCCCCC(=O)O)NC(=O)[C@H]([C@@H](C)O)NC(=O)[C@H](C(C)C)NC(=O)[C@H](CC2CCCCC2)NC(=O)[C@H](Cc2cnc[nH]2)NC1=O (stereo partly drawn) [Compound 1116]
104	Cc1cccc(C[C@@H]2NC(=O)[C@H](CC(=O)O)NC(=O)[C@H](Cc3ccc(OCC(=O)O)cc3)NC(=O)[C@H](C)NC(=O)CSC[C@@H](C(=O)N[C@@H](CCN)C(=O)NCCOCCOCC(=O)NCCOCCOCC(=O)NCCCCCCCCCCCCCCC(=O)O)NC(=O)[C@H](CO)NC(=O)[C@H](C(C)(C)O)NC(=O)[C@H](CC3CCCCC3)NC(=O)[C@H](CCN)NC(=O)[C@@H](CC(C)C)NC(=O)[C@H](CCCN)NC(=O)[C@H](Cc3ccc(C(=O)O)cc3)NC(=O)[C@H](Cc3ccc(-c4ccccc4)cc3)NC(=O)[C@H](Cc3ccc(C(=O)O)cc3)NC2=O)c1 [Compound 3853] ({CH2CO}-AY(Carboxymethyl)D[Phe(3-Me)][Phe(4-COOH)][Bip][Phe(4-COOH)][Orn][dL][Dab][Cha][Val(3-OH)]SC[Dab][AEEA][AEEA]-{NH(CH2)14COOH}; thioether N-14)
26	COC[C@H](NC(=O)COCCOCCNC(=O)[C@H](CCN)NC(=O)[C@@H]1CSCC(=O)N[C@@H](CCN)C(=O)N[C@@H](Cc2ccc(OCC(=O)O)cc2)C(=O)N[C@@H](CC(=O)O)C(=O)N[C@@H](Cc2cccc(C)c2)C(=O)N[C@@H](Cc2ccc(OCC(=O)O)cc2)C(=O)N[C@@H](Cc2ccc(-c3ccccc3)cc2)C(=O)N[C@@H](Cc2ccc(OCC(=O)O)cc2)C(=O)N[C@@H](CCCN)C(=O)N[C@H](CC(C)C)C(=O)N[C@@H](CCN)C(=O)N[C@@H](CC2CCCCC2)C(=O)N[C@@H](C(C)(C)O)C(=O)N[C@@H](CO)C(=O)N1)C(=O)NCCCCCCCCCCCCC(=O)O [Compound 3816] ({CH2CO}-[Dab]Y(Carboxymethyl)D[Phe(3-Me)]Y(Carboxymethyl)[Bip]Y(Carboxymethyl)[Orn][dL][Dab][Cha][Val(3-OH)]SC[Dab][AEEA]S(Me)-{NH(CH2)12COOH}; thioether N-14)
26	Cc1cccc(C[C@@H]2NC(=O)[C@H](CC(=O)O)NC(=O)[C@H](Cc3ccc(OCC(=O)O)cc3)NC(=O)[C@H](CN)NC(=O)CSC[C@@H](C(=O)N[C@@H](C)C(=O)N[C@@H](CO)C(=O)NCCCCCCCCCCC(=O)O)NC(=O)[C@H]([C@@H](C)O)NC(=O)[C@H](C(C)C)NC(=O)[C@H](CC3CCCCC3)NC(=O)[C@H](Cc3cnc[nH]3)NC(=O)[C@@H](CC(C)C)NC(=O)[C@H](CCCN)NC(=O)[C@H](C(C)C)NC(=O)[C@H](Cc3ccc(-c4ccccc4)cc3)NC(=O)[C@H](C(C)C)NC2=O)c1 [Compound 1115] ({CH2CO}-[Dap]Y(Carboxymethyl)D[Phe(3-Me)]V[Bip]V[Orn][dL]H[Cha]VTCAS[Aun]-OH; thioether N-14)
51	CC(C)C[C@H]1NC(=O)[C@H](CCCN)NC(=O)[C@H](C(C)C)NC(=O)[C@H](Cc2ccc(-c3ccccc3)cc2)NC(=O)[C@H](C(C)C)NC(=O)[C@H](Cc2c[nH]c3ccccc23)NC(=O)[C@H](CC(=O)O)NC(=O)[C@H](Cc2ccc(OCC(=O)O)cc2)NC(=O)[C@H](CN)NC(=O)CSC[C@@H](C(=O)N[C@@H](CCCCN)C(=O)NCCCCCCCCCCC(=O)O)NC(=O)[C@H](CCCN)NC(=O)[C@H](C(C)C)NC(=O)[C@H](CC2CCCCC2)NC(=O)[C@H](Cc2c[nH]cn2)NC1=O [Compound 2804] ({CH2CO}-[Dap]Y(Carboxymethyl)DWV[Bip]V[Orn][dL]H[Cha]V[Orn]CK[Aun]-OH; thioether N-14)
8.1	Cc1cccc(C[C@@H]2NC(=O)[C@H](CC(=O)O)NC(=O)[C@H](Cc3ccc(OCC(=O)O)cc3)NC(=O)[C@H](CCCNC(=N)N)NC(=O)CSC[C@@H](C(=O)N[C@@H](CCN)C(=O)NCCCCCCCCCCC(=O)O)NC(=O)[C@H](C(C)O)NC(=O)[C@H](C(C)C)NC(=O)[C@H](CC3CCCCC3)NC(=O)[C@H](CCN)NC(=O)[C@@H](CC(C)C)NC(=O)[C@H](CCCN)NC(=O)[C@H](CCC(N)=O)NC(=O)[C@H](Cc3ccc(-c4ccccc4)cc3)NC(=O)[C@H](C(C)C)NC2=O)c1 (stereo partly drawn) [Compound 3355] ({CH2CO}-RY(Carboxymethyl)D[Phe(3-Me)]V[Bip]Q[Orn][dL][Dab][Cha]V[Thr(3ξ)]C[Dab][Aun]-OH; thioether N-14)
